# Measurements published in patent US20260256794A1, “Oral Dynamine Formulations and Methods Therefor” (Ortho-Nutra, LLC, priority 2023, published 2026).
# Columns and labels:
# Type in all cases: in vivo, human
# subjects [1] = assay: VAS-Vigor; design: VAS-Vigor rating, Mean / VAS-Vigor changes from baseline, Mean Difference ± SE / VAS-Vigor area under the curve, Mean Difference ± SE / VAS-Vigor area under the curve, Mean: scale not given here
# Method: (§1) The inventors have discovered various compositions and methods of improving various indices of neurological and neuroenergetic functions by administering 100 mg (once daily) dosages of DYNAMINE™ (dosage between 1.0 and 1.4 mg/kg) as described in the following:
# (§2) All neuroenergetic tests as listed below were performed and data were collected after 0 and 4 days of assigned supplements (with acute effects also measured at day 4 over 180 minutes):
# (§3) All VAS Measurement (Energy, Sustained Energy, Mental Stamina, Ability to Focus, Ability to Concentrate, Motivation to Accomplish Difficult Tasks, Drive, Vigor, Level of Positive Outlook, Mood, Feelings of Well-Being, Tolerate Stress); Day 0: Two tests were completed. The average of both scores was computed and this value was used in all statistical analysis. Day 4 (0 minutes after ingesting dose #4): Two tests were completed. The average of both scores was computed and this value was used in all statistical analysis. Day 4 (60, 120, and 180 minutes after ingesting dose #4): One test was completed at each time point.
# (§4) Neuroenergic parameters are inherently subjective, nevertheless significant in human behavior and well-being. To allow for a standardization among different subjects, the following experiments were performed using a visual analog scale using anchor statements (lowest possible/highest possible) in which subjects were asked to rate their subjective experience with respect to the specific neuroenergic parameters tested.
# VAS-Vigor: In this subjective test, subjects were asked to rate their personal level of energy on a VAS scale using the prompt of “My level of vigor right now is . . . ” (with rating lowest possible to highest possible)”. Results were collected as noted above and Table 25 provides exemplary results for Day 0 versus Day 4 ratings, whereas Table 26 provides exemplary acute results measured at Day 4 over a duration of 180 minutes. […] Of note, it should be appreciated that drive is also often a function of dopamine activation. As above, is it therefore contemplated that methylliberine may also have an agonist effect on dopamine receptors or signaling.
# subjects [2] = assay: VAS-Energy; design: VAS-Energy rating, Mean / VAS-Energy changes from baseline, Mean Difference ± SE / VAS-Energy Δ, Mean Difference ± SE / VAS-Energy area under the curve, Mean Difference ± SE / VAS-Energy area under the curve, Mean: scale not given here; conditions: for VAS-Energy Δ, effect size d / VAS-Energy Δ from 0 min, Mean / VAS-Energy Δ, Mean Difference ± SE: females; for VAS-Energy Δ, effect size d: vs placebo; for VAS-Energy Δ, Mean Difference ± SE: B vs A (placebo)
# Method: as §1, §2, §3, §4
# VAS-Energy: In this subjective test, subjects were asked to rate their personal level of energy on a VAS scale using the prompt of “My level of energy right now is . . . ” (with rating lowest possible to highest possible)”. Results were collected as noted above and Table 2 provides exemplary results for Day 0 versus Day 4 ratings, whereas Table 3 provides exemplary acute results measured at Day 4 over a duration of 180 minutes.
# subjects [3] = assay: Trail Making Test; conditions: for Trail Making Test score, Mean: lower = faster
# Method: as §1, §2
# Trail Making Test: Day 0: Two blocks of three tests were completed. Each block of three tests was separated by 10 minutes. The median of each block was taken and then those two scores were averaged. This value was used in all statistical analysis. Day 4: Three tests were completed at four time points: after 0, 60, 120, and 180 minutes of taking dose #4. The median of the three tests at each time point was used in all statistical analysis.
# The trail making test has at least two test conditions. In Condition A, a subject is asked to draw lines to connect circled numbers in a numerical sequence (e.g., 1-2-3, etc.) as rapidly in possible. In Condition B the subject is asked to draw lines to connect circled numbers and letters in an alternating numeric and alphabetic sequence (i.e., 1-A-2-B, etc.) as rapidly as possible. Although trail making tests are conceptually very simple, they are thought to reflect a wide variety of cognitive processes including attention, visual search and scanning, sequencing and shifting, psychomotor speed, abstraction, flexibility, ability to execute and modify a plan of action, and ability to maintain two trains of thought simultaneously.
# [4] = 100 mg once daily, Day 4, 0-180 min
# [5] = 100 mg once daily, Day 4, 0-180 min, vs Group A (placebo)
# [6] = 100 mg once daily, Day 4, 0 min after dose #4
# [7] = 100 mg once daily, Day 4, 60 min-0 min, vs Group A (placebo)
# [8] = 100 mg once daily, Day 4, 60 min after dose #4
# [9] = 100 mg once daily, Day 4, 120 min-0 min, vs Group A (placebo)
# [10] = 100 mg once daily, Day 4, 120 min after dose #4
# [11] = 100 mg once daily, Day 4, 180 min-0 min, vs Group A (placebo)
# [12] = 100 mg once daily, Day 4, 180 min after dose #4
# [13] = 100 mg once daily, Day 4, Δ @ 60 min
# [14] = 100 mg once daily, Day 4, Δ @ 120 min
# [15] = 100 mg once daily, Day 4, Δ @ 180 min
structure (smiles),measurement,setting,value
"COc1nc2c(c(=O)n1C)n(C)c(=O)n2C [methylliberine, 2-methoxy-1,7,9-trimethylpurine-6,8-dione]","VAS-Vigor area under the curve, Mean",subjects [1]; [4],1112
same,"VAS-Vigor area under the curve, Mean Difference ± SE",subjects [1]; [5],21.8 ± 41.5
same,"VAS-Vigor area under the curve, effect size d",subjects [1]; [5],0.07
same,"VAS-Vigor rating, Mean",subjects [1]; [6],5.8
same,"VAS-Vigor changes from baseline, Mean Difference ± SE",subjects [1]; [7],0.02 ± 0.23
same,"VAS-Vigor changes from baseline, effect size d",subjects [1]; [7],0.02
same,"VAS-Vigor rating, Mean",subjects [1]; [8],6.2
same,"VAS-Vigor changes from baseline, Mean Difference ± SE",subjects [1]; [9],−0.12 ± 0.25
same,"VAS-Vigor changes from baseline, effect size d",subjects [1]; [9],0.13
same,"VAS-Vigor rating, Mean",subjects [1]; [10],6.3
same,"VAS-Vigor changes from baseline, Mean Difference ± SE",subjects [1]; [11],0.43 ± 0.28
same,"VAS-Vigor changes from baseline, effect size d",subjects [1]; [11],−0.41
same,"VAS-Vigor rating, Mean",subjects [1]; [12],6.4
same,"VAS-Vigor rating, Mean",subjects [1]; Day 0 (before supplementation),5.8
same,"VAS-Energy area under the curve, Mean",subjects [2]; [4],1115
same,"VAS-Energy area under the curve, Mean Difference ± SE",subjects [2]; [5],49.6 ± 36.3
same,"VAS-Energy area under the curve, effect size d",subjects [2]; [5],0.15
same,"VAS-Energy rating, Mean",subjects [2]; [6],5.8
same,"VAS-Energy changes from baseline, Mean Difference ± SE",subjects [2]; [7],0.24 ± 0.22
same,"VAS-Energy changes from baseline, effect size d",subjects [2]; [7],0.28
same,"VAS-Energy rating, Mean",subjects [2]; [8],6.2
same,"VAS-Energy changes from baseline, Mean Difference ± SE",subjects [2]; [9],−0.14 ± 0.27
same,"VAS-Energy changes from baseline, effect size d",subjects [2]; [9],−0.14
same,"VAS-Energy rating, Mean",subjects [2]; [10],6.2
same,"VAS-Energy changes from baseline, Mean Difference ± SE",subjects [2]; [11],0.28 ± 1.24
same,"VAS-Energy changes from baseline, effect size d",subjects [2]; [11],0.28
same,"VAS-Energy rating, Mean",subjects [2]; [12],6.5
same,"VAS-Energy rating, Mean",subjects [2]; Day 0 (before supplementation),5.5
same,"VAS-Energy Δ, effect size d","subjects [2]; 100 mg once daily, Day 4, 60 min",0.81
same,"VAS-Energy Δ, effect size d","subjects [2]; 100 mg once daily, Day 4, 120 min",0.69
same,"VAS-Energy Δ, effect size d","subjects [2]; 100 mg once daily, Day 4, 120 min, listed as B",−0.03
same,"VAS-Energy Δ, effect size d","subjects [2]; 100 mg once daily, Day 4, 180 min",0.69
same,"VAS-Energy Δ from 0 min, Mean",subjects [2]; [13],0.66
same,"VAS-Energy Δ, Mean Difference ± SE",subjects [2]; [13],0.72 ± 0.23
same,"VAS-Energy Δ from 0 min, Mean",subjects [2]; [14],0.42
same,"VAS-Energy Δ, Mean Difference ± SE",subjects [2]; [14],−0.03 ± 0.38
same,"VAS-Energy Δ from 0 min, Mean",subjects [2]; [15],1.08
same,"VAS-Energy Δ, Mean Difference ± SE",subjects [2]; [15],0.73 ± 1.11
same,"Trail Making Test score, Mean",subjects [3]; [6],21.6
same,"Trail Making Test score, Mean",subjects [3]; [8],20.4
same,"Trail Making Test score, Mean",subjects [3]; [10],20.2
same,"Trail Making Test score, Mean",subjects [3]; [12],20.3
same,improvement in TMT performance,"subjects [3]; 4-days daily supplementation, Day 4 vs Day 0, p<0.001",+11.1%
same,"Trail Making Test score, Mean",subjects [3]; Day 0 (before supplementation),24.3
